Test results from patent publication US4833136A, “Pharmaceutically useful pyrazolo[4,3-b]pyridines” (Beecham Group p.l.c., priority 1986, dated 1989).

Tests used:
[1] = tested on: mouse sensitized to oxazolone; experiment: Mouse oxazolone screen: topical anti-inflammatory activity in the mouse sensitized to oxazolone; format: in vivo; settings: oxazolone challenge 100 μg/ear, ears weighed 24 hours later
Description: Compounds were tested for topical anti-inflammatory activity in a screen using the mouse sensitized to oxazolone, by a method modified from that of Dietrich and Hess [Int. Arch. Allergy, 38, 246 (1970)].
Mice were sensitized with oxazolone (2 mg in 20 μl EtOH) on a shaved area of the abdomen. 5 days later, the animals received 10 μl THF/MeOH (1:1 v/v) on the right ear and the test compound in the same solvent on the left ear. 1 hour later, the animals were challenged with 100 μg oxazolone in 10 μl acetone on each ear. Ear weights were measured 24 hours later. Percentage inhibition of the inflammatory swelling refers to the increase in weight of left ears (oxazolone plus compound in THF/MeOH) compared to untreated negative controls, as a proportion of the increase in weight of right ears (oxazolone plus THF/MeOH) only similar controls.

[2] = tested on: cantharidin mouse ear; experiment: Mouse cantharidin screen: topical anti-inflammatory activity, cantharidin mouse ear; format: in vivo; settings: cantharidin 25 μg/ear, ears weighed after 24 hours
Description: Compounds were tested for topical anti-inflammatory activity in a cantharidin mouse ear screen, modified from Swingle, Reiter and Schwartzmiller [Arch. int. Pharmacodyn. 254, 168-176, 1976].
25 μg cantharidin (in 10 μl THF) was applied to both ears. Compound, in the same solvent, was applied at the same time, to the left ear only. Ears were weighed after 24 hours. Percentage inhibition of the acute inflammatory swelling refers to the increase in weight of left ears (cantharidin plus compound) compared to solvent-treated negative controls, as a proportion of the increase in weight of right ears (cantharidin alone) over similar controls.

[3] = dose 200 μg/ear 1 hour before challenge

Structure (SMILES) | % Inhibition of the inflammatory swelling [1, 3] [%] | % Inhibition of the acute inflammatory swelling ([2]; dose 500 μg/ear) [%] | % Inhibition of the acute inflammatory swelling ([2]; dose 200 μg/ear) [%] | also measured
Cc1cc(NCCO)c2[nH]nc(Br)c2n1 [Compound 1, 3-Bromo-7-(2-hydroxyethylamino)-5-methyl-1H-pyrazolo-[4,3-b]pyridine] | 22 | – | – | –
Cc1cc(NCCO)c2[nH]nc(C)c2n1 [Compound 2, 7-(2-Hydroxyethylamino)-3,5-dimethyl-1H-pyrazolo[4,3-b]pyridine] | 52 | 86 | – | –
Cc1cc(NCCO)c2[nH]nc(-c3ccccc3)c2n1 [Compound 3, 7-(2-Hydroxyethylamino)-5-methyl-3-phenyl-1H-pyrazolo[4,3-b]pyridine] | – | 98 | – | % Inhibition of the inflammatory swelling ([1]; dose 500 μg/ear 1 hour before challenge): 52%
C=CCNc1cc(C)nc2c(C)n[nH]c12 [Compound 4, 7-Allylamino-3,5-dimethyl-1H-pyrazolo[4,3-b]pyridine] | – | – | 83 | –
C=CCNc1cc(C)nc2c(-c3ccccc3)n[nH]c12 [Compound 5, 7-Allylamino-5-methyl-3-phenyl-1H-pyrazolo[4,3-b]pyridine] | – | 90 | – | –
Cc1cc(NCCO)c2[nH]nc(-c3ccc(Cl)cc3)c2n1 [Compound 6, 3-(4-Chlorophenyl)-7-(2-hydroxyethylamino)-5-methyl-1H-pyrazolo[4,3-b]pyridine] | 31 | – | 68 | –
Cc1cc(NCC(C)C)c2[nH]nc(-c3ccccc3)c2n1 [Compound 7, 7-Isobutylamino-5-methyl-3-phenyl-1H-pyrazolo[4,3-b]pyridine] | – | 39 | – | –
Cc1cc(NCCO)c2nn(-c3ccccc3)c(C)c2n1 [Compound 13, 7-(2-Hydroxyethylamino)-3,5-dimethyl-2-phenylpyrazolo[4,3-b]pyridine] | – | – | 43 | –
